# Key:
# [1] = molecular target: JAK1 (Homo sapiens (Human), UniProt P23458); assay: Biochemical JAK kinase assay (LanthaScreen), JAK1; details: for Ki: read-out: JAK1 pKi (converted)
# Outline: (§1)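 LanthaScreen format: phospho-STAT1 (pTyr701) detected with 2 nM Tb antibody after 10 mM EDTA quench. Kinase step used Km-level ATP and 200 nM STAT1 peptide, 1 h at ambient after 1 h pre-incubation. Inhibition fitted to IC50, reported as pKi.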
# [2] = tested on: IL-13 induced STAT6 phosphorylation in BEAS-2B human lung epithelial cells; assay: Cellular JAKI potency assay (BEAS-2B); assay type: cell-based; details: BEAS-2B cells; for IC50: Homo sapiens, BEAS-2B, read-out: BEAS2B pIC50 (converted)
# Outline: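 BEAS-2B cells were preincubated with compound (0.1% DMSO) in HBSS/HEPES/BSA for 1 h at 37 °C, then stimulated with IL-13 (80 ng/mL before addition) for 30 min. After lysis, pSTAT6 (Tyr641) was quantified by AlphaLISA SureFire; IC50 from a 4-parameter fit of percent inhibition, reported as pIC50.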
# [3] = molecular target: TYK2 (Homo sapiens (Human), UniProt P29597); assay: Biochemical JAK kinase assay (LanthaScreen), Tyk2; details: read-out: Tyk2 pKi (converted)
# Description: A panel of four LanthaScreen JAK biochemical assays (JAK1, 2, 3 and Tyk2) were carried in a common kinase reaction buffer (50 mM HEPES, pH 7.5, 0.01% Brij-35, 10 mM MgCl2, and 1 mM EGTA). Recombinant GST-tagged JAK enzymes and a GFP-tagged STAT1 peptide substrate were obtained from Life Technologies.
# Serially diluted compounds were pre-incubated with each of the four JAK enzymes and the substrate in white 384-well microplates (Corning) at ambient temperature for 1 h. ATP was subsequently added to initiate the kinase reactions in 10 μL total volume, with 1% DMSO. The final enzyme concentrations for JAK1, 2, 3 and Tyk2 are 4.2 nM, 0.1 nM, 1 nM, and 0.25 nM respectively; the corresponding Km ATP concentrations used are 25 μM, 3 μM, 1.6 μM, and 10 μM; while the substrate concentration is 200 nM for all four assays. Kinase reactions were allowed to proceed for 1 hour at ambient temperature before a 10 μL preparation of EDTA (10 mM final concentration) and Tb-anti-pSTAT1 (pTyr701) antibody (Life Technologies, 2 nM final concentration) in TR-FRET dilution buffer (Life Technologies) was added. The plates were allowed to incubate at ambient temperature for 1 h before being read on the EnVision reader (Perkin Elmer). Emission ratio signals (520 nm/495 nm) were recorded and utilized to calculate the percent inhibition values based on DMSO and background controls.
# For dose-response analysis, percent inhibition data were plotted vs. compound concentrations, and IC50 values were determined from a 4-parameter robust fit model with the Prism software (GraphPad Software). Results were expressed as pIC50 (negative logarithm of IC50) and subsequently converted to pKi (negative logarithm of dissociation constant, Ki) using the Cheng-Prusoff equation.
# Test compounds having a lower Ki value or higher pKi value in the four JAK assays show greater inhibition of JAK activity.
# [4] = molecular target: JAK2 (Homo sapiens (Human), UniProt O60674); assay: Biochemical JAK kinase assay (LanthaScreen), JAK2; details: for Ki: read-out: JAK2 pKi (converted)
# Outline: as §1
# Chain of JAK1 (P23458 whole entry): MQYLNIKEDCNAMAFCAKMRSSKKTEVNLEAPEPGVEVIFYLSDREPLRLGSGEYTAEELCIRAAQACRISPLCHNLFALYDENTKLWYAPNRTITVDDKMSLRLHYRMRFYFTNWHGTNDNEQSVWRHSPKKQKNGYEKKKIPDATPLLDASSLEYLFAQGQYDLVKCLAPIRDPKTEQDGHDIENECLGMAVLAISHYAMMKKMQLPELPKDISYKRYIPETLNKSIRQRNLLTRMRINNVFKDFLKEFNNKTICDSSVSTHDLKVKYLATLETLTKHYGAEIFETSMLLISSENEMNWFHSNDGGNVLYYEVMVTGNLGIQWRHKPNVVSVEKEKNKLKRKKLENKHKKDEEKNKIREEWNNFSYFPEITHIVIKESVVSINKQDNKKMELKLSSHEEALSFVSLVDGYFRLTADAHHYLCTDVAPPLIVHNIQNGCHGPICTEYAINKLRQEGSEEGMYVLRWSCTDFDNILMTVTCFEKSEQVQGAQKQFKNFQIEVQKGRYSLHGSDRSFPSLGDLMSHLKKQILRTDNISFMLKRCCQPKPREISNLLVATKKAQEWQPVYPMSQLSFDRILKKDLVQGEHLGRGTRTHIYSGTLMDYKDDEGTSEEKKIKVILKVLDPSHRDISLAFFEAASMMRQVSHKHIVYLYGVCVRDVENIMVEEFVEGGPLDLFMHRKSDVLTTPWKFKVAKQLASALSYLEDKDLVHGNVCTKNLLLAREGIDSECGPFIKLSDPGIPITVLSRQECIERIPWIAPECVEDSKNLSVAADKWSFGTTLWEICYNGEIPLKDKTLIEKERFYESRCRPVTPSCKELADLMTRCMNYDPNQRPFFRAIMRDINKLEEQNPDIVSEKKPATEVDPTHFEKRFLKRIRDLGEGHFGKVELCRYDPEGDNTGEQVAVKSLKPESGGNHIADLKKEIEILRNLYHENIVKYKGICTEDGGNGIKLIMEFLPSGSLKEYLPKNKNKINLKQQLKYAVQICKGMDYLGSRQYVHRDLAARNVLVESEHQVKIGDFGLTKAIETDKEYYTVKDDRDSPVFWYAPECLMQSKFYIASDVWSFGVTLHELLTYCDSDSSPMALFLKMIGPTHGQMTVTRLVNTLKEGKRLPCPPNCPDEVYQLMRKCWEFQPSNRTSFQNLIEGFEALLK
# Chain of TYK2 (P29597 whole entry): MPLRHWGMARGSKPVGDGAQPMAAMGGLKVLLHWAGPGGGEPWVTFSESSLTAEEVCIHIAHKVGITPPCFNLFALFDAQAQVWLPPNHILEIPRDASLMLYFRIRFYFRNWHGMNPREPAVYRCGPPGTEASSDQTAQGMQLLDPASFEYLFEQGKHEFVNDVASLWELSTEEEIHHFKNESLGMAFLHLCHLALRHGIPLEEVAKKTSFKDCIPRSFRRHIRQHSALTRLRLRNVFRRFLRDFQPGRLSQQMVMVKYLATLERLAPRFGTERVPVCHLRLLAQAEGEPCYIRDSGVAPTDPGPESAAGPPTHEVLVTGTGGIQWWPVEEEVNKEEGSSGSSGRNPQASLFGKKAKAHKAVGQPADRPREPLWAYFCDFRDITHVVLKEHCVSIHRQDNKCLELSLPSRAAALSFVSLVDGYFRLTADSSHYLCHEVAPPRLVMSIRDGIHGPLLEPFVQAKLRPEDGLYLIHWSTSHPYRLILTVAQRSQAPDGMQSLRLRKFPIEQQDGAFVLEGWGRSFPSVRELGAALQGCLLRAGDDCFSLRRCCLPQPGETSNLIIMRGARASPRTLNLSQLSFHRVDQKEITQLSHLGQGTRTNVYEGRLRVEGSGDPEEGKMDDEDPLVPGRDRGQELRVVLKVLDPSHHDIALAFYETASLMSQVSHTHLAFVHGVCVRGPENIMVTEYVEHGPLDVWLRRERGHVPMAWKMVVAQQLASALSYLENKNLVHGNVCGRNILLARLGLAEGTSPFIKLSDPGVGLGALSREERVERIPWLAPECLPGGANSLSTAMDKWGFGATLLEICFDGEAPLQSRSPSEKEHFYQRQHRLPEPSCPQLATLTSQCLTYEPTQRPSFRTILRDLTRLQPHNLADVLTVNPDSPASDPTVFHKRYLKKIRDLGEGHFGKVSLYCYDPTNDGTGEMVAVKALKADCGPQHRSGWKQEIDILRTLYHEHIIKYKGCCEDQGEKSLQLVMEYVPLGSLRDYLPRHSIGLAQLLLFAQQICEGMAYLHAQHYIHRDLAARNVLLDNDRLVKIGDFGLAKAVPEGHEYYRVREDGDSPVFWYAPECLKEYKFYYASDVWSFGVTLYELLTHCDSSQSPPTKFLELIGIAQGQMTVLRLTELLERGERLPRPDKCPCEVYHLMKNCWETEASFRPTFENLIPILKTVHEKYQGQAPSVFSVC
# Chain of JAK2 (O60674 whole entry): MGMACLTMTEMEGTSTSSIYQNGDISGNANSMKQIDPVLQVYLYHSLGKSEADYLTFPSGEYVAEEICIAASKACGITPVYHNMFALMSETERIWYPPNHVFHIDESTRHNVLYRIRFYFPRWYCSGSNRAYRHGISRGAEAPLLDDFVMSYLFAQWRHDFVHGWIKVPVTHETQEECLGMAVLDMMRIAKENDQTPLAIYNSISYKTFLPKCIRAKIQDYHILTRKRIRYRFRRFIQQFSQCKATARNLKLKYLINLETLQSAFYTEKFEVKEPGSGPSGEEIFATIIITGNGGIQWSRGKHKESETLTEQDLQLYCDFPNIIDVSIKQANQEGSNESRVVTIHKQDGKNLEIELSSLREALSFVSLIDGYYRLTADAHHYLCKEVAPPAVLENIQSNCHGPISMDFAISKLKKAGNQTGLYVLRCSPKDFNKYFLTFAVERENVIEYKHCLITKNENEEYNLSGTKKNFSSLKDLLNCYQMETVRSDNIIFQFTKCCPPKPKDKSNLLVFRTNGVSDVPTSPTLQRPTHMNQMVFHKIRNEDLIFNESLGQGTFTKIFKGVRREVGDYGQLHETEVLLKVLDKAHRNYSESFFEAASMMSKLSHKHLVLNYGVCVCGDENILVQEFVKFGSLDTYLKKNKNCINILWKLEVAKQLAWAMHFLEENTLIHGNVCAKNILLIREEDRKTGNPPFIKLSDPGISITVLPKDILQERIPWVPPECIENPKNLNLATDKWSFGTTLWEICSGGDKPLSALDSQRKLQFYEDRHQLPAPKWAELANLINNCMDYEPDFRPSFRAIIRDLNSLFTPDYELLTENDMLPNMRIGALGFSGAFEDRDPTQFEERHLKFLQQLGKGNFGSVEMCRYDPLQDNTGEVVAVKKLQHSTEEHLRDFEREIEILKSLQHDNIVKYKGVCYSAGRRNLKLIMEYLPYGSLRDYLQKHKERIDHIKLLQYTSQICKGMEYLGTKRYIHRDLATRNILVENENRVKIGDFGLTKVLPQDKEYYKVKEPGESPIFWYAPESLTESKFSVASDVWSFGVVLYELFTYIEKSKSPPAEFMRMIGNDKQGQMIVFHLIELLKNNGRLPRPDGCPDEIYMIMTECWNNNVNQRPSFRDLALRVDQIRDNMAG
SMILES,Ki [1],IC50 [2],Ki [3],JAK1 pKi [1],Ki [4],JAK2 pKi [4],BEAS2B pIC50 [2]
"CCc1cc(O)ccc1-c1ccc2c(-c3nc(C4=CCN(C(=O)[C@@H]5CCCN5)CC4)c[nH]3)n[nH]c2c1F [Compound 16, (S)-6-(2-ethyl-4-hydroxyphenyl)-7-fluoro-3-(4-(1-prolyl-1,2,3,6-tetrahydropyridin-4-yl)-1H-imidazol-2-yl)-1H-indazole]",1 to 10 nM,31.6 to 100 nM,1 to 10 nM,–,–,–,–
"CCc1cc(O)c(F)cc1-c1ccc2c(-c3nc(C4=CCNC4)c[nH]3)n[nH]c2c1F [Example 18, 4-(3-(4-(2,5-dihydro-1H-pyrrol-3-yl)-1H-imidazol-2-yl)-7-fluoro-1H-indazol-6-yl)-5-ethyl-2-fluorophenol]",–,3.16 to 10 nM,1 to 10 nM,A (A represents a pKi value ≥10 (Ki≤0.1 nM)),–,–,–
CCc1cc(O)ccc1-c1ccc2c(-c3nc(C4=CCCN(C5CCOCC5)C4)c[nH]3)n[nH]c2c1F [Example 69],0.1 to 1 nM,10 to 31.6 nM,1 to 10 nM,–,0.1 to 1 nM,–,–
CCc1cc(O)ccc1-c1ccc2c(-c3nc(C4=CCN(C5CCCCC5)CC4)c[nH]3)n[nH]c2c1F [Example 122],0.1 to 1 nM,31.6 to 100 nM,1 to 10 nM,–,–,–,–
CCc1cc(O)ccc1-c1ccc2c(-c3nc(C4=CCCN(C5CCCCC5)C4)c[nH]3)n[nH]c2c1F [Example 126],0.1 to 1 nM,31.6 to 100 nM,1 to 10 nM,–,–,–,–
CCc1cc(O)ccc1-c1ccc2c(-c3nc(C4=CCN(C(=O)[C@@H](N)Cc5ccccc5)CC4)c[nH]3)n[nH]c2c1 [Example 176],0.1 to 1 nM,31.6 to 100 nM,1 to 10 nM,–,–,–,–
CCc1cc(O)ccc1-c1ccc2c(-c3nc(C4=CCN(C(=O)[C@@H]5CCCN5)CC4)c[nH]3)n[nH]c2c1 [Example 177],0.1 to 1 nM,31.6 to 100 nM,1 to 10 nM,–,–,–,–
CCc1cc(O)ccc1-c1ccc2c(-c3nc(C4=CCN(C(=O)[C@@H](N)Cc5ccccc5)CC4)c[nH]3)n[nH]c2c1F [Example 179],1 to 10 nM,100 to 316 nM,10 to 100 nM,–,–,–,–
CCc1cc(O)ccc1-c1ccc2c(-c3nc(C4=CCN(S(=O)(=O)C5CNC5)C4)c[nH]3)n[nH]c2c1F [Example 180],1 to 10 nM,31.6 to 100 nM,10 to 100 nM,–,–,–,–
CCc1cc(O)ccc1-c1ccc2c(-c3nc(C4=CCN(C(=O)[C@@H]5CCCN5)C4)c[nH]3)n[nH]c2c1F [Example 181],0.1 to 1 nM,31.6 to 100 nM,1 to 10 nM,–,–,–,–
CCc1cc(O)ccc1-c1ccc2c(-c3nc(C4=CCN(C5CCN(C)CC5)CC4)c[nH]3)n[nH]c2c1 [Example 182],–,10 to 31.6 nM,1 to 10 nM,A (A represents a pKi value ≥10 (Ki≤0.1 nM)),0.1 to 1 nM,–,–
CCc1cc(O)ccc1-c1ccc2c(-c3nc(C4=CCN(CCNC)CC4)c[nH]3)n[nH]c2c1 [Example 183],0.1 to 1 nM,31.6 to 100 nM,1 to 10 nM,–,–,–,–
CCc1cc(O)ccc1-c1ccc2c(-c3nc(C4=CCN(CCN)CC4)c[nH]3)n[nH]c2c1F [Example 187],0.1 to 1 nM,31.6 to 100 nM,1 to 10 nM,–,0.1 to 1 nM,–,–
CCc1cc(O)ccc1-c1ccc2c(-c3nc(C4=CCN(CCNC)CC4)c[nH]3)n[nH]c2c1F [Example 188],0.1 to 1 nM,31.6 to 100 nM,1 to 10 nM,–,–,–,–
CCc1cc(O)ccc1-c1ccc2c(-c3nc(C4=CCCN(C[C@H]5COCCN5)C4)c[nH]3)n[nH]c2c1F [Example 197],0.1 to 1 nM,31.6 to 100 nM,1 to 10 nM,–,–,–,–
CCc1cc(O)ccc1-c1ccc2c(-c3nc(C4=CCN(CCN)C4)c[nH]3)n[nH]c2c1F [Example 203],0.1 to 1 nM,31.6 to 100 nM,1 to 10 nM,–,–,–,–
CCc1cc(O)ccc1-c1ccc2c(-c3nc(C4=CCN(CCNC)C4)c[nH]3)n[nH]c2c1F [Example 204],0.1 to 1 nM,31.6 to 100 nM,1 to 10 nM,–,–,–,–
CCc1cc(O)ccc1-c1ccc2c(-c3nc(C4=CCN(C5CCCNC5)CC4)c[nH]3)n[nH]c2c1F (stereo not drawn) [Example 211],0.1 to 1 nM,31.6 to 100 nM,1 to 10 nM,–,–,–,–

SMILES,Ki [1],IC50 [2],Ki [3],JAK1 pKi [1],Ki [4],JAK2 pKi [4],BEAS2B pIC50 [2]
CCc1cc(O)ccc1-c1ccc2c(-c3nc(C4=CCN(C[C@@H]5COCCN5C)C4)c[nH]3)n[nH]c2c1F [Example 221],0.1 to 1 nM,10 to 31.6 nM,0.1 to 1 nM,–,–,–,–
CCc1cc(O)ccc1-c1ccc2c(-c3nc(C4=CCN(C5CCCNC5)C4)c[nH]3)n[nH]c2c1F (stereo not drawn) [Example 222],0.1 to 1 nM,10 to 31.6 nM,1 to 10 nM,–,–,–,–
CCc1cc(O)ccc1-c1ccc2c(-c3nc(C4=CC(C)(C)NC(C)(C)C4)c[nH]3)n[nH]c2c1 [Example 226],0.1 to 1 nM,10 to 31.6 nM,1 to 10 nM,–,–,–,–
CCc1cc(O)ccc1-c1ccc2c(-c3nc(C4=CCNCC4)c(C)[nH]3)n[nH]c2c1 [Example 291],–,3.16 to 10 nM,0.1 to 1 nM,A (A represents a pKi value ≥10 (Ki≤0.1 nM)),–,–,–
CCc1cc(O)ccc1-c1ccc2c(-c3nc(C4=CCNC(C)(C)C4)c[nH]3)n[nH]c2c1F [Example 377],0.1 to 1 nM,31.6 to 100 nM,–,–,0.1 to 1 nM,–,–
Oc1ccc(-c2ccc3c(-c4nc(C5=CCNC5)c[nH]4)n[nH]c3c2)c(CC(F)(F)F)c1 [Example 378],0.1 to 1 nM,31.6 to 100 nM,–,–,0.1 to 1 nM,–,–
CCc1cc(O)ccc1-c1ccc2c(-c3nc(C4=C(C(=O)N(C)C)CNCC4)c[nH]3)n[nH]c2c1F [Example 379],0.1 to 1 nM,31.6 to 100 nM,–,–,–,A (A represents a pKi value ≥10 (Ki≤0.1 nM)),–
CCc1cc(O)ccc1-c1ccc2c(-c3nc(C4=CCN(C(=O)CCNC)C4)c[nH]3)n[nH]c2c1F [Example 380],0.1 to 1 nM,31.6 to 100 nM,–,–,–,A (A represents a pKi value ≥10 (Ki≤0.1 nM)),–
CCc1cc(O)ccc1-c1ccc2c(-c3nc(C4=CCN(C(=O)CCNCCOC)C4)c[nH]3)n[nH]c2c1F [Example 381],0.1 to 1 nM,31.6 to 100 nM,–,–,–,A (A represents a pKi value ≥10 (Ki≤0.1 nM)),–
CCc1cc(O)ccc1-c1ccc2c(-c3nc(C4=CCN(C[C@@H]5COCCN5C(=O)OC(C)(C)C)CC4)c[nH]3)n[nH]c2c1 [Example 383],0.1 to 1 nM,31.6 to 100 nM,10 to 100 nM,–,–,–,–
CCc1cc(O)ccc1-c1ccc2c(-c3nc(C4=CCN(C(=O)[C@H](CO)NC)C4)c[nH]3)n[nH]c2c1F [Example 385],0.1 to 1 nM,31.6 to 100 nM,–,–,–,A (A represents a pKi value ≥10 (Ki≤0.1 nM)),–
CCc1cc(O)ccc1-c1ccc2c(-c3nc(C4=CCN[C@H](CO)C4)c[nH]3)n[nH]c2c1F [Example 386],0.1 to 1 nM,–,–,–,0.1 to 1 nM,–,C (C represents a pIC50 value between 7 (included) and 7.5)
Oc1ccc(-c2ccc3c(-c4nc(C5=CCNCC5)c[nH]4)n[nH]c3c2F)c(CC(F)(F)F)c1 [Example 387],1 to 10 nM,31.6 to 100 nM,–,–,0.1 to 1 nM,–,–
CCc1cc(O)ccc1-c1ccc2c(-c3nc(C4=CC(C(C)C)NC4)c[nH]3)n[nH]c2c1F (stereo not drawn) [Example 388],1 to 10 nM,31.6 to 100 nM,–,–,1 to 10 nM,–,–
CCc1cc(O)ccc1-c1ccc2c(-c3nc(C4=CCN(C(=O)COCCNCCOC)C4)c[nH]3)n[nH]c2c1F [Example 389],0.1 to 1 nM,100 to 316 nM,–,–,–,A (A represents a pKi value ≥10 (Ki≤0.1 nM)),–
CCc1cc(O)ccc1-c1ccc2c(-c3nc(C4=CCN([C@H]5CC[C@](O)(C(F)(F)F)CC5)C4)c[nH]3)n[nH]c2c1F [Example 391],0.1 to 1 nM,100 to 316 nM,–,–,0.1 to 1 nM,–,–
CCc1cc(O)ccc1-c1ccc2c(-c3nc(C4=CCN[C@H](CO)C4)c[nH]3)n[nH]c2c1F [Example 392],–,–,–,B (B represents a pKi value between 9 (included) and 10 (Ki between 1 nM and 0.1 nM)),–,B (B represents a pKi value between 9 (included) and 10 (Ki between 1 nM and 0.1 nM)),D (D represents a pIC50 value between 6.5 (included) and 7)
CCc1cc(O)ccc1-c1ccc2c(-c3nc(C4=CCN(CCS(=O)(=O)NC)C4)c[nH]3)n[nH]c2c1F [Example 393],0.1 to 1 nM,100 to 316 nM,–,–,0.1 to 1 nM,–,–

# Reference: US20240092758A1, “IMIDAZOLO INDAZOLE COMPOUNDS AS JAK INHIBITORS” (Theravance Biopharma R&D IP, LLC, priority 2021, published 2024)
